For 41 compounds, EC50 results are on record in patent US12583858B2 (Genentech, Inc., priority 2015, dated 2026).

In this experiment the target is T1, TDO2 (Homo sapiens, UniProt P48775).
T1 construct: decreased levels of NFK in SW48 cells (high TDO expressing cells)
T1 sequence (P48775 whole entry): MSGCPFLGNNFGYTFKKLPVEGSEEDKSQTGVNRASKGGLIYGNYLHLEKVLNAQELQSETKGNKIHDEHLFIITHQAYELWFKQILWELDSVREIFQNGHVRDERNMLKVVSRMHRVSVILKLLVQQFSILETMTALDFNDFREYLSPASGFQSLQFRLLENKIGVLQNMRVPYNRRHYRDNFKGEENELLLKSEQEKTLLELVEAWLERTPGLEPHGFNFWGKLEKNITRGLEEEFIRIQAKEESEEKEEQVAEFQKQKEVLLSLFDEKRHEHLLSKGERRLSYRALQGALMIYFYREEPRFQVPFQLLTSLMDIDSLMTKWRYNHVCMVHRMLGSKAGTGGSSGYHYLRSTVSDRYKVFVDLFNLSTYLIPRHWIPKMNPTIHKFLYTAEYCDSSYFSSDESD
As to the kind of experiment: TDO2 cell assay (NFK GreenScreen, SW48 cells). Type of experiment: cell-based. To be noted: SW48 cells (high TDO expressing), 200 uM tryptophan, 24 hours; Table 3; read-out: TDO2 Cell Fluor EC50.
As to `CS(=O)(=O)N1CCC(O)(C2c3ccccc3-c3cncn32)C1` (single isomer, unassigned) [Example 116a], the EC50 (commonly the concentration at which the effect is half-maximal) is more than 25 µM.

For the compound `CC1(C)CCCC(C2c3ccccc3-c3cncn32)C1O` (single isomer, unassigned) [Example 24d], the EC50 worked out at 1.1 µM. As to `OC1C(C2c3ccccc3-c3cncn32)CCC12CCOCC2` (single isomer, unassigned) [Example 68c], the EC50 was more than 25 µM.

On to `NS(=O)(=O)N1CC(O)C(C2c3ccccc3-c3cncn32)C1` (single isomer, unassigned) [Example 28b], for which the EC50 was found to be 4.4 µM. For `Cn1ncc2c1CCC(C1c3ccccc3-c3cncn31)C2O` (single isomer, unassigned) [Example 93b], the EC50 stood at 5.5 µM. The value for `OC1COCCC1C1c2cccc(F)c2-c2cncn21` (single isomer, unassigned) [Example 99c] was more than 25 µM. On to `CS(=O)(=O)N1CCC2(CCC(C3c4ccccc4-c4cncn43)C2O)CC1` (single isomer, unassigned) [Example 180b], for which the EC50 is more than 25 µM. The value for `CS(=O)(=O)c1ccc2c(c1)OCC(C1c3ccccc3-c3cncn31)C2O` (single isomer, unassigned) [Example 91a] was 2.8 µM; that for `CS(=O)(=O)N1CCC(C2c3ccc(F)cc3-c3cncn32)C(O)C1` (single isomer, unassigned) [Example 119a] was more than 25 µM. In the case of `Nc1cc2n(n1)CC[C@H]([C@H]1c3ccccc3-c3cncn31)[C@H]2O` [Example 161a, (4R,5R)-2-amino-5-((S)-5H-imidazo[5,1-a]isoindol-5-yl)-4,5,6,7-tetrahydropyrazolo[1,5-a]pyridin-4-ol] it was 18 µM; in that of `CS(=O)(=O)N1CCC(C2c3ccccc3-c3cncn32)C(O)C1` (single isomer, unassigned) [Example 79b], 5.2 µM.

In the case of `O[C@@H]1c2ncccc2CC[C@H]1[C@H]1c2ccccc2-c2cncn21` [Example 63a, (7S,8S)-7-((S)-5H-imidazo[5,1-a]isoindol-5-yl)-5,6,7,8-tetrahydroquinolin-8-ol], the EC50 turned out to be 0.061 µM. In the case of `O[C@H]1CCC(F)(F)C[C@H]1[C@H]1c2ccccc2-c2cncn21` [Example 18a, (1S,2S)-4,4-difluoro-2-((S)-5H-imidazo[5,1-a]isoindol-5-yl)cyclohexan-1-ol] it was 0.065 µM.

Turning to `O[C@H]1CCOC[C@@H]1[C@@H]1c2ccccc2-c2cncn21` [Example 05a, (3S,4S)-3-((R)-5H-imidazo[5,1-a]isoindol-5-yl)-tetrahydro-2H-pyran-4-ol], the EC50 was 23 µM. For the compound `NS(=O)(=O)N1CCC2(CC1)CC(C1c3ccccc3-c3cncn31)C2O` (single isomer, unassigned) [Example 181f], the EC50 amounted to 0.2 µM. In the case of `N#Cc1cc2n(n1)CCC(C1c3ccccc3-c3cncn31)C2O` (single isomer, unassigned) [Example 174a] it was more than 25 µM; in that of `OC1CC2(COC2)C1C1c2ccccc2-c2cncn21` (single isomer, unassigned) [Example 87h], 11 µM; in that of `O[C@H]1CCCC[C@@H]1[C@@H]1c2ccccc2-c2cncn21` [Example 03g, (1S,2R)-2-((R)-5H-imidazo[5,1-a]isoindol-5-yl)cyclohexan-1-ol], 7.6 µM. The value for `N#Cc1cnc2c(c1)CCC(C1c3ccccc3-c3cncn31)C2O` (single isomer, unassigned) [Example 107g] was 0.87 µM; that for `NC(=O)c1ccc2c(n1)CCC(C1c3ccccc3-c3cncn31)C2O` (single isomer, unassigned) [Example 104b] was 0.2 µM. For the compound `CC1(C)OCC(C2c3ccccc3-c3cncn32)C1O` (single isomer, unassigned) [Example 85e], the EC50 was more than 25 µM. As for `Cn1cc2c(n1)C(O)C(C1c3ccccc3-c3cncn31)CC2` (single isomer, unassigned) [Example 139-1b], the EC50 was more than 25 µM. On to `OC1c2ccccc2CCC1C1c2ccccc2-c2cncn21` (single isomer, unassigned) [Example 102d], for which the EC50 worked out at 11 µM. On to `OC1c2ccccc2CCC1C1c2ccccc2-c2cncn21` (single isomer, unassigned) [Example 102c], for which the EC50 was determined as 0.32 µM.

For the compound `OC1CC(CF)(CF)C1C1c2ccccc2-c2cncn21` (single isomer, unassigned) [Example 150d], the EC50 worked out at 18 µM. In the case of `OC(C1CC1)C1c2ccccc2-c2cncn21` (single isomer, unassigned) [Example 52c] it was more than 25 µM; in that of `CC(C)(C)OC(=O)N1CC2(CC(C3c4ccccc4-c4cncn43)C2O)C1` (single isomer, unassigned) [Example 41a, tert-butyl 7-hydroxy-6-(5H-imidazo[1,5-b]isoindol-5-yl)-2-azaspiro[3.3]heptane-2-carboxylate], more than 25 µM.

For `NS(=O)(=O)N1CC(O)C(C2c3ccccc3-c3cncn32)C1` (single isomer, unassigned) [Example 28a], the concentration giving a half-maximal response (EC50) is more than 25 µM. In the case of `NS(=O)(=O)c1ccc2c(c1)C(O)C(C1c3ccccc3-c3cncn31)CC2` (single isomer, unassigned) [Example 105g] it was 9.2 µM. `OC(C1c2ccccc2-c2cncn21)C1(F)CC1` (single isomer, unassigned) [Example 154b]: the 50% effective concentration (EC50) is more than 25 µM.

On to `O[C@@H]1c2ccncc2CC[C@@H]1[C@H]1c2ccccc2-c2cncn21` (single isomer, unassigned) [Example 08d], for which the EC50 is 0.51 µM. With `CC1(C)COCC(C2c3ccccc3-c3cncn32)C1O` (single isomer, unassigned) [Example 66d], the 50% effective concentration (EC50) amounted to 2 µM. In the case of `OC1CCOCC1C1c2cccc(F)c2-c2cncn21` (single isomer, unassigned) [Example 170c] it was more than 25 µM; in that of `CCS(=O)(=O)N1CC(O)C(C2c3ccccc3-c3cncn32)C1` (single isomer, unassigned) [Example 40a], 6.4 µM. The value for `NC(=O)C1([C@@H](O)[C@@H]2c3ccccc3-c3cncn32)CC1` [Example 165b, 1-((R)-hydroxy ((S)-5H-imidazo[5,1-a]isoindol-5-yl)methyl)cyclopropane-1-carboxamide] was more than 25 µM; that for `NS(=O)(=O)c1ccc2c(c1)C(O)C(C1c3ccccc3-c3cncn31)CC2` (single isomer, unassigned) [Example 105e] was 0.46 µM. `CC1(C)C[C@H](O)[C@@H]1[C@H]1c2ccccc2-c2cncn21` [Example 22a, (1S,2S)-2-((S)-5H-imidazo[5,1-a]isoindol-5-yl)-3,3-dimethylcyclobutan-1-ol]: the EC50 was determined as 0.06 µM. For the compound `CN(C)S(=O)(=O)N1CC[C@@H]([C@H]2c3ccccc3-c3cncn32)[C@H](O)C1` [Example 78b], the EC50 was 0.16 µM. As for `OC1c2[nH]ncc2CCC1C1c2ccccc2-c2cncn21` (single isomer, unassigned) [Example 157a], the EC50 stood at 0.37 µM. Turning to `OC1c2cnccc2CCC1C1c2ccccc2-c2cncn21` (single isomer, unassigned) [Example 04a], the EC50 came out at 1.3 µM. In the case of `CC(C)(C)OC(=O)N1CCCC(O)(C2c3ccccc3-c3cncn32)C1` (single isomer, unassigned) [Example 127b], the 50% effective concentration (EC50) came to 0.89 µM.
